Experimental data reported in PubChem BioAssay (NCI).
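Tested at 5 concentrations; 48 h exposure; 96-well plates; endpoints linearly interpolated, else capped at highest concentration. The concentration for 50% growth inhibition is given as GI50. TGI denotes the concentration required for complete inhibition of growth.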

Key:
Assay in all cases: DTP human tumour cell line panel, 48 h
MDA-N = test system: MDA-N
OVCAR-5 ovarian = test system: OVCAR-5 ovarian
UO-31 renal = test system: UO-31 renal
NCI-H23 lung = test system: NCI-H23 lung
PC-3 prostate = test system: PC-3 prostate
RXF 393 renal = test system: RXF 393 renal
SK-MEL-28 melanoma = test system: SK-MEL-28 melanoma
786-0 renal = test system: 786-0 renal
SF-539 CNS = test system: SF-539 CNS
HCT-15 colon = test system: HCT-15 colon
HL-60(TB) leukemia = test system: HL-60(TB) leukemia

Structure (SMILES) | TGI (MDA-N) [µM] | TGI (OVCAR-5 ovarian) [µM] | TGI (UO-31 renal) [µM] | TGI (NCI-H23 lung) [µM] | TGI (PC-3 prostate) [µM] | TGI (RXF 393 renal) [µM] | TGI (SK-MEL-28 melanoma) [µM] | TGI (786-0 renal) [µM] | TGI (SF-539 CNS) [µM] | TGI (HCT-15 colon) [µM] | TGI (HL-60(TB) leukemia) [µM] | GI50 (OVCAR-5 ovarian) [µM] | GI50 (UO-31 renal) [µM] | GI50 (NCI-H23 lung) [µM] | GI50 (PC-3 prostate) [µM] | GI50 (RXF 393 renal) [µM] | GI50 (HL-60(TB) leukemia) [µM] | GI50 (SK-MEL-28 melanoma) [µM] | GI50 (SF-539 CNS) [µM] | GI50 (HCT-15 colon) [µM]
O=C(c1ccccc1)C1C(c2ccccc2[N+](=O)[O-])N1C1CCCCC1 (stereo not drawn) | 19.7 | 36.9 | 20.3 | 37.4 | 15.9 | 17 | > 57.7 | 5.05 | 4.77 | 23 | – | – | – | – | – | – | – | – | – | –
COc1cc2c(cc1OCCN1CCN(CCOc3cc4c(cc3OC)C(=O)N3CCC[C@H]3C=N4)CC1)N=C[C@@H]1CCCN1C2=O | – | 63.7 | > 73.7 | 46 | > 93.9 | 56.3 | > 100 | > 76.8 | > 64.3 | > 100 | > 100 | – | – | – | – | – | – | – | – | –
CN(C)c1ccc(/C=C2\N=C(c3ccccc3)N(c3nc4ccc(Sc5ccccc5)cc4[nH]3)C2=O)cc1 | – | > 100 | > 100 | > 100 | > 100 | > 100 | > 100 | > 100 | – | > 100 | 33.3 | – | – | – | – | – | – | – | – | –
CCOC(=O)NCC(=O)NCC(=O)NCC(N)=O | > 100 | > 100 | > 100 | > 100 | > 100 | > 100 | > 100 | > 100 | – | > 100 | – | – | – | – | – | – | – | – | – | –
N#CC(c1cc(Cl)ncn1)c1nc2cc(C(F)(F)F)ccc2s1 (stereo not drawn) | 15.7 | 34.3 | 17.8 | 6.97 | – | 19.7 | 37.4 | 13.4 | 20.9 | 13.6 | – | – | – | – | – | – | – | – | – | –
Cc1c(-c2ccccc2)oc(=O)c2ccccc12 | 59.3 | 80.9 | 43.7 | 56.6 | 72.1 | 37.7 | 37.3 | 51.2 | 36.2 | 54.2 | – | – | – | – | – | – | – | – | – | –
Oc1ccccc1/C=N/c1nc(-c2ccccc2)cs1 | – | > 100 | > 100 | 41.8 | > 100 | 32.6 | > 100 | – | 94.3 | > 100 | > 100 | 32.2 | 44.7 | 18.4 | 53.7 | 10.4 | 36 | > 100 | 27.5 | 29.4
CC(C)C(Nc1c2ccccc2[n+](C)c2ccccc12)C(=O)O (stereo not drawn) | – | > 100 | > 100 | > 100 | – | > 100 | – | > 100 | > 100 | > 100 | > 100 | – | – | – | – | – | – | – | – | –
O=c1ccc(=O)c2c1c1[nH]c3ccccc3c1c1c(=O)c3ccccc3c(=O)c21 | – | > 10 | > 10 | > 10 | > 10 | > 10 | > 10 | > 10 | > 10 | > 10 | 9.85 | – | – | – | – | – | – | – | – | –
COc1cc2ccc(C(C)NCC#N)cc2cc1OC (stereo not drawn) | > 100 | > 100 | > 100 | – | > 100 | > 100 | > 100 | > 100 | > 100 | > 100 | > 100 | – | – | – | – | – | – | – | – | –
CCOC(=O)CC1C(C(=O)OCC)=Cn2c([nH]c3cccc4cccc2c43)=C1C(=O)OCC (stereo not drawn) | > 100 | > 100 | > 100 | > 100 | > 100 | > 100 | > 100 | > 100 | – | > 100 | > 100 | – | – | – | – | – | – | – | – | –
